Measured values taken from the supplement of paper PMC10307832.

What was measured:
Experiment in all cases: relative viability (nuclei count vs DMSO), 5 days (fraction); higher = more cells survive
[1] = compound: CN(C)C(=N)NC(=N)N [Metformin] + Cc1cc(Nc2cc(N3CCN(C)CC3)nc(Sc3ccc(NC(=O)C4CC4)cc3)n2)n[nH]1 [Tozasertib] (partner 0.1 µM)
Method in brief: (§1)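 A single step with final 0.05% Triton X-100, 1% formaldehyde and 1 ug/ml Hoechst fixed the cells and stained nuclei 5 days after treatment. Lung cancer cell lines in 1536-well plates had been treated by pin tool the day after seeding with one drug alone or a fixed anchor-drug dose plus five library-drug doses (not always all listed) in √10 steps, and nuclei were counted on 4× images. Relative viability is the ratio of nuclei in treated wells to nuclei in vehicle wells, taken as the median of duplicate plates.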

[2] = compound: CN(C)C(=N)NC(=N)N [Metformin] + N=C(N)NC(=N)NCCc1ccccc1 [Phenformin] (partner 250 µM)
Method in brief: as §1

[3] = compound: N#CC1(c2ccc(NC(=O)c3cccnc3NCc3ccncc3)cc2)CCCC1 [Apatinib] + CC(C)C[C@H](NC(=O)[C@H](Cc1ccccc1)NC(=O)c1cnccn1)B(O)O [Bortezomib] (partner 0.002 µM)
Method in brief: as §1

[4] = compound: N#CC1(c2ccc(NC(=O)c3cccnc3NCc3ccncc3)cc2)CCCC1 [Apatinib] + CS(=O)(=O)CCNCc1ccc(-c2ccc3ncnc(Nc4ccc(OCc5cccc(F)c5)c(Cl)c4)c3c2)o1 [Lapatinib] (partner 2 µM)
Method in brief: as §1

Row | Cell Line | relative viability ([1]; first compound 10 µM) | relative viability ([1]; first compound 31.62 µM) | relative viability ([1]; first compound 100 µM) | relative viability ([1]; first compound 316.23 µM) | relative viability ([1]; first compound 1000 µM) | relative viability ([2]; first compound 10 µM) | relative viability ([2]; first compound 31.62 µM) | relative viability ([2]; first compound 100 µM) | relative viability ([2]; first compound 316.23 µM) | relative viability ([2]; first compound 1000 µM) | relative viability ([3]; first compound 0.08 µM) | relative viability ([3]; first compound 0.253 µM) | relative viability ([3]; first compound 0.8 µM) | relative viability ([3]; first compound 2.53 µM) | relative viability ([3]; first compound 8 µM) | relative viability ([4]; first compound 0.08 µM) | relative viability ([4]; first compound 0.253 µM) | relative viability ([4]; first compound 0.8 µM) | relative viability ([4]; first compound 2.53 µM) | relative viability ([4]; first compound 8 µM)
1 | A-427 | 0.225 | 0.255 | 0.224 | 0.185 | 0.245 | 0.32 | 0.376 | 0.325 | 0.284 | 0.287 | 1.08 | 0.955 | 1.01 | 0.886 | 0.945 | 1.06 | 1.1 | 1.06 | 0.984 | 0.982
2 | NCI-H2087 |  | 0.281 | 0.246 | 0.253 | 0.245 |  | 0.435 | 0.507 | 0.398 | 0.386 | 0.866 | 0.82 | 0.779 | 0.737 | 0.671 | 0.877 | 0.982 | 1.09 | 0.793 | 0.891
3 | NCI-H647 | 0.244 | 0.293 | 0.349 | 0.456 | 0.307 | 0.614 | 0.58 | 0.62 | 0.521 | 0.653 | 1.27 | 1.33 | 1.01 | 0.736 | 0.823 | 1.35 | 1.13 | 0.925 | 1.02 | 0.858
4 | NCI-H1437 | 0.403 | 0.44 | 0.405 | 0.411 | 0.418 | 0.296 | 0.363 | 0.338 | 0.343 | 0.299 | 0.52 | 0.526 | 0.461 | 0.434 | 0.439 | 0.761 | 0.841 | 0.745 | 0.624 | 0.537
5 | SW 1573 | 0.153 | 0.119 | 0.175 | 0.161 | 0.162 | 0.422 | 0.387 | 0.492 | 0.414 | 0.364 | 1.15 | 1.04 | 0.982 | 1.05 | 0.944 | 0.958 | 1.09 | 1.15 | 1.09 | 1.02
6 | BEN | 0.476 | 0.494 | 0.439 | 0.516 | 0.395 | 0.295 | 0.292 | 0.297 | 0.27 | 0.252 | 0.688 | 0.868 | 0.876 | 0.458 | 0.871 | 0.604 | 0.67 | 0.764 | 0.578 | 0.591
7 | EKVX | 0.337 | 0.519 | 0.443 |  | 0.391 | 0.23 | 0.253 | 0.239 |  | 0.189 | 0.941 | 1.21 | 0.967 | 0.98 | 1.01 | 0.186 | 0.131 | 0.229 | 0.186 | 0.188
8 | NCI-H2347 | 0.627 | 0.51 |  | 0.492 | 0.63 | 0.384 | 0.363 |  | 0.422 | 0.404 | 0.847 | 1.06 | 1.13 |  | 0.891 | 0.926 | 0.992 | 1.02 | 0.964 | 0.957
9 | H3255 | 0.603 | 0.551 | 0.615 | 0.562 | 0.592 | 0.395 | 0.365 | 0.436 | 0.338 | 0.382 | 0.729 | 0.791 | 0.657 | 0.612 | 0.723 | 0.235 | 0.227 | 0.231 | 0.311 | 0.286
10 | LU99A | 0.234 | 0.246 | 0.253 | 0.235 | 0.236 | 0.937 | 0.816 | 0.761 | 0.775 | 0.919 | 1.21 | 1.22 | 1.2 | 0.943 | 0.976 | 1.02 | 1.07 | 0.969 | 0.821 | 0.954
11 | HCC-44 | 0.971 | 0.931 | 1.06 | 0.761 | 0.757 | 0.236 | 0.35 | 0.298 | 0.223 | 0.166 | 1.01 | 0.951 | 0.894 | 0.753 | 0.856 | 1.04 | 0.993 | 0.991 | 0.945 | 0.941
12 | EPLC-272H | 0.292 | 0.212 | 0.288 | 0.192 | 0.238 | 0.333 | 0.369 | 0.381 | 0.262 | 0.304 | 1.04 | 0.905 | 0.806 | 0.738 | 0.666 | 1.13 | 0.874 | 1.11 | 0.708 | 1.05
13 | EMC-BAC-2 | 0.29 | 0.307 | 0.317 | 0.289 | 0.32 | 0.592 | 0.519 | 0.506 | 0.499 | 0.651 | 1.08 | 0.987 | 1.07 | 0.843 | 0.918 | 0.954 | 0.886 | 0.878 | 0.877 | 0.807
14 | NCI-H1355 | 0.613 | 0.654 | 0.684 | 0.504 | 0.757 | 0.472 | 0.412 | 0.474 | 0.432 | 0.47 | 1.2 | 1.16 | 1.16 | 1.14 | 1.08 | 1.06 | 0.963 | 0.973 | 0.923 | 0.944
15 | RERF-LC-KJ | 0.329 | 0.273 | 0.403 | 0.277 | 0.352 | 0.489 | 0.466 | 0.456 | 0.428 | 0.499 | 1.03 | 0.99 | 1.04 | 1.05 | 1.05 | 0.787 | 0.851 | 0.817 | 0.693 | 0.698
16 | NCI-H661 | 0.344 | 0.373 | 0.377 | 0.362 | 0.366 | 0.284 | 0.262 | 0.264 | 0.267 | 0.267 | 0.935 | 0.855 | 0.685 | 0.764 | 0.584 | 0.598 | 0.59 | 0.504 | 0.477 | 0.391
17 | SK-LU-1 | 0.263 | 0.311 | 0.272 | 0.263 | 0.307 | 0.608 | 0.532 | 0.501 | 0.424 | 0.54 | 0.932 | 1.26 | 0.968 | 1.12 | 1 | 0.939 | 1.16 | 1.03 | 0.715 | 0.709
18 | HARA |  | 0.0842 | 0.14 | 0.101 | 0.105 |  | 0.459 | 0.518 | 0.493 | 0.591 | 1.14 | 1.07 | 1.14 | 0.992 | 1.18 | 0.755 | 0.895 | 0.674 | 0.731 | 0.623
19 | HCC-366 | 0.142 | 0.141 | 0.111 | 0.135 | 0.163 | 0.403 | 0.679 | 0.616 | 0.644 | 0.734 | 1.16 | 1.1 | 0.948 | 0.926 | 1.09 | 1.07 | 1.14 | 0.98 | 0.979 | 1.02
20 | HCC-827 |  | 0.422 | 0.442 | 0.387 | 0.439 |  | 0.412 | 0.376 | 0.365 | 0.373 | 0.977 | 0.907 | 1.07 | 1.05 | 1.09 | 0.197 | 0.177 | 0.165 | 0.19 | 0.196
21 | NCI-H2126 | 0.764 | 0.834 | 0.824 | 0.525 | 0.53 | 0.533 | 0.591 | 0.544 | 0.483 | 0.515 | 1.11 | 1.01 | 1.08 | 1.06 | 1.06 | 0.757 | 0.768 | 0.762 | 0.711 | 0.78
22 | ABC-1 | 0.223 | 0.163 | 0.172 | 0.158 | 0.189 | 0.292 | 0.244 | 0.251 | 0.202 | 0.19 |  | 0.333 | 0.311 | 0.335 | 0.316 | 1.03 | 1.45 | 1.42 | 1.14 | 0.993
23 | COR-L23 | 0.183 | 0.193 | 0.187 | 0.164 | 0.176 | 0.437 | 0.46 | 0.487 | 0.431 | 0.146 | 1.07 | 1.03 | 0.971 | 0.793 | 0.898 | 0.919 | 1.16 | 1.05 | 0.792 | 0.722
24 | NCI-H1915 |  | 0.452 | 0.466 | 0.416 | 0.489 |  | 0.357 | 0.384 | 0.352 | 0.365 | 0.953 | 0.984 | 0.956 | 0.812 | 0.924 | 1.04 | 0.94 | 0.892 | 0.802 | 0.935
25 | NCI-H2228 | 0.27 | 0.31 | 0.241 | 0.333 | 0.409 | 0.27 | 0.213 | 0.372 | 0.275 | 0.322 | 1.27 | 1.17 | 1.17 | 1.02 | 0.93 | 1.01 | 1.05 | 0.986 | 0.835 | 0.644
26 | NCI-H23 | 0.382 | 0.49 | 0.433 | 0.445 | 0.498 | 0.743 | 0.716 | 0.716 | 0.729 | 0.897 | 0.91 | 1.01 | 0.908 | 0.902 | 0.805 | 1.54 | 1.2 | 0.959 | 1.04 | 0.905
27 | NCI-H596 | 0.955 | 0.93 | 1.1 | 0.985 | 0.938 | 0.84 | 0.73 | 0.689 | 0.765 | 0.952 | 1.2 | 1 | 1.17 | 0.929 | 1.04 | 1.16 | 1.1 | 1.02 | 0.976 | 1.18
